Drawing on PubChem BioAssay (NCI), this text covers TGI and GI50 for 15 molecules.

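Grown in 96-well plates, cells were treated for 48 hours with each compound at five concentrations. Insufficient inhibition: endpoint recorded as highest concentration tested. Here, GI50 denotes the concentration required for 50% inhibition of growth. Definition used: TGI = concentration required for complete inhibition of growth.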

Holding throughout (experiment): NCI-60 cell line screen, 48 h
The subject of assay [1] is SN12C renal.
For assay [2], the system named is CCRF-CEM leukemia.
In assay [3] the test system is MDA-MB-231 breast.
In assay [4] the test system is COLO 205 colon.
For assay [5], the system named is CAKI-1 renal.
The subject of assay [6] is NCI-H226 lung.
For assay [7], the system named is SK-OV-3 ovarian.
The subject of assay [8] is NCI-H522 lung.
The test system of assay [9] is SK-MEL-28 melanoma.
Assay [10] deals with LOX IMVI melanoma.

For the molecule `COc1ccc(-c2nc3ccccc3c(=O)[nH]2)cc1OC`, the TGI was > 100 µM in [1]; > 100 µM in [2]; 77 µM in assay [3]; > 100 µM in assay [4]; > 100 µM in assay [5]; 55.8 µM in assay [6]. Further, the TGI in assay [7] is > 100 µM.
In the case of `C/C(=N\Nc1nc2ccccc2[nH]1)c1ccc2ccccc2n1`, the TGI in assay [1] is 7.57 µM; in [8] it was 8.85 µM; in [2] it was 3.87 µM; in assay [3], 12.5 µM; in assay [4] it was 16.2 µM; in [5], 1.54 µM. The figures for the TGI in assay [9], in assay [10] and in assay [7] were 23 µM, 10.2 µM and 38.4 µM, respectively.
Regarding `CC(=O)Oc1ccc(C2SCc3nc4ccccc4n32)cc1` (stereo not given), the TGI is > 100 µM in assay [1]; 69.2 µM in assay [8]; > 100 µM in assay [2]; > 100 µM in assay [3]; 56.3 µM in assay [4]; > 93.2 µM in [5]. Also, the results for the TGI in [9], in assay [10] and in assay [7] were > 100 µM, > 100 µM and 95.3 µM, respectively.
Consider `COc1cc(/C=C2\CCCC3=C2N=C2SC=NN2C3c2cc(OC)c(OC)c(OC)c2)cc(OC)c1OC` (stereo not given), for which the GI50 in assay [1] is 2.39 µM; in [8], 2.72 µM; in assay [2] it was 3.17 µM; in [3], 4.95 µM; in assay [5], 3.43 µM; in [9] it was 2.07 µM. For the same molecule, the TGI in [1] is 7.11 µM; in assay [8], 8.51 µM; in assay [2], > 100 µM; in assay [3], > 100 µM; in assay [5], > 100 µM; in assay [9], 5.26 µM.
Regarding `C[C@H](OC(=O)/C=C/c1ccc(O)c(O)c1)[C@H](C)OC(=O)/C=C/c1ccc(O)c(O)c1`, the TGI in [1] was 34 µM; in [8], 35.1 µM; in assay [3], 35.9 µM; in [4] it was 50.3 µM; in assay [5], > 100 µM; in assay [9], 28.6 µM. Besides, the TGI in assay [10] turned out to be 22.6 µM; in assay [7], 32.3 µM.
With `C=C1[C@@H]2CCC(C)(C)[C@H]1CCC(=O)[C@@H]2C(=O)OC`, the TGI in assay [1], in assay [2], in assay [4], in assay [9], in assay [6] and in assay [10] was > 100 µM in each case.
For `Cc1csc(CP(=O)(OC(C)C)OC(C)C)n1`, the TGI in assay [1], in assay [8], in [3], in [4], in assay [5] and in assay [9] was > 100 µM in each case. In addition, the TGI in [6], in assay [10] and in assay [7] was > 100 µM throughout.
For `O=C(CCCN1CCC(Nc2ccc(F)cc2)(c2nnnn2C2CCCCC2)CC1)c1ccc(F)cc1`, the TGI was > 100 µM in assay [1]; 29.8 µM in assay [8]; > 100 µM in assay [2]; 36 µM in assay [3]; 37.1 µM in [4]; 30.5 µM in [9]. Besides, the figures for the TGI in assay [6], in [10] and in assay [7] were 36 µM, > 100 µM and 11.5 µM, respectively.
Consider `CCOC(=O)C(/C=N/C(N)=S)=C(/O)c1ccccc1`, for which the TGI in assay [1], in [3], in assay [4], in assay [5], in assay [9] and in [6] was > 100 µM in each case. For the same molecule, the TGI in [10] and in [7] was > 100 µM in each case.
With `COc1cc(C2C(Cl)C(=O)N2NC(=O)c2ccccc2O)cc(OC)c1OC` (stereo not given), the TGI was 8.21 µM in assay [8], > 10 µM in assay [2], > 10 µM in [6] and > 10 µM in assay [10].
`Cc1ccc(S(=O)(=O)N/N=C2/C3CC4CCC2C4C3)cc1` (stereo not given): the TGI in assay [1], in [8], in [3], in assay [4], in [5] and in assay [9] was > 100 µM each time. The TGI in assay [6], in assay [10] and in [7] was > 100 µM throughout.
For `COc1ccc(OC)c2c1-c1nnnn1CCC2(C)C`, the TGI in assay [1], in assay [8], in assay [2], in assay [3], in [4] and in [9] was > 100 µM in each case. Also, the TGI in [6], in assay [10] and in assay [7] was > 100 µM each time.
Regarding `CSc1nnc2n1-c1ccccc1SCC2`, the TGI in assay [1], in [8], in assay [2], in [4], in [9] and in assay [6] was > 100 µM each time. The TGI in assay [10] and in assay [7] was > 100 µM in each case.
As to `O=CN/C=C\c1cc(O)ccc1O`, the TGI in assay [1] is 28.9 µM; in [8] it was 10 µM; in assay [2], > 100 µM; in [4] it was 29.5 µM; in assay [5], 26.4 µM; in assay [9] it was > 64.9 µM. Moreover, the TGI in assay [6] was > 100 µM; in [10], 22.7 µM; in [7] it was > 100 µM.
Consider `COc1ccc([C@H]2C=C(c3cc(F)c(Cl)cc3Cl)N=c3s/c(=C\c4ccc(-c5ccc(Cl)cc5Cl)o4)c(=O)n32)cc1`, for which the TGI in assay [1] was > 100 µM; in [8], > 100 µM; in [3], 70.2 µM; in [4], > 100 µM; in assay [5], > 100 µM; in [9] it was > 100 µM. For the same molecule, the TGI in [6] is > 100 µM; in assay [10], > 100 µM; in [7], 65.2 µM.
